The record followed here is patent US20230285606A1, “METHODS AND AGENTS FOR THE DETECTION AND TREATMENT OF CANCER” (CASE WESTERN RESERVE UNIVERSITY, priority 2020, published 2023).

No end group written: not given here.

The subject of assay [1] is heterotopic xenograft flank U87 tumor implants. Kind of assay: In vivo fluorescence imaging of heterotopic xenograft U87 flank tumors. Particulars: mice with U87 flank tumors; fluorophore-conjugated peptide injected via tail vein; FIG. 1/FIG. 2. How it is done:
(§1) The human U87-MG and LN-229 glioma cell line was purchased from American Type Culture Collection (Manassas, Va., USA) and cultured. NIH athymic nude mice (5-8 weeks and 20-25 g on arrival; NCI-NIH) were maintained at the Athymic Animal Core Facility at Case Western Reserve University according to institutional policies. All animal protocols were approved by the Institutional Animal Care and Use Committee (IACUC). The cells were diluted in a 1:1 mixture of PBS and BD MATRIGEL Matrix (BD Biosciences, Franklin Lakes, N.J., USA), and injected into the right flank of nude athymic mice (NCr-nu/+, NCr-nu/nu, 20-25 g each). The Matrigel-cell mixture was loaded into a 1-ml syringe fitted with a 26-gauge needle and kept on ice. The mixture was injected subcutaneously in the right flank region of the mouse. Flank tumors were grown for 2 to 3 weeks. Each flank was implanted with 1.4-2×10^6 cells. To correlate tumor position with GFP fluorescence, mice were imaged using the Perkin-Elmer MAESTRO FLEX In vivo Imaging System. For in vivo analyses, the mice were anesthetized with inhaled isoflurane/oxygen and imaged. For ex vivo analyses, mice were sacrificed by decapitation. […]
(§2) Nude mice with heterotopic (flank) tumors were typically imaged 3 to 6 weeks following tumor initiation. […] Average radiant intensity units, calculated by the LivingImage software, were obtained for each ROI. […]

Assay [2] concerns heterotopic xenograft flank U87 tumor implants overexpressing PTPmu. Kind of assay: In vivo fluorescence imaging of heterotopic xenograft U87 flank tumors overexpressing PTPmu. The following applies: mice with U87 flank tumors overexpressing PTPmu; FIG. 2. The protocol: as §1, §2

For the substance “Peptide 3: SBK linked to a fluorophore with a glycine/serine spacer (GEGDDFNWEQVNTLTKPTSD; also: fluorophore linked via glycine/serine spacer, not defined)”, the “in vivo average radiant efficiency” value in assay [1] and in assay [2] was “increased average radiant efficiency compared to the second agent” in each case.
For “Peptide 2: SBK linked to a fluorophore with a polyglycine peptide spacer (GEGDDFNWEQVNTLTKPTSD; also: fluorophore linked via polyglycine spacer, not defined)”, the “in vivo average radiant efficiency” value in assay [1] is “increased average radiant efficiency compared to the first agent, without a spacer, and the control agent”.
